Activity calls are given as the source filed them. The calls are words filed in the database; no cut-off is given here.
Key:
[1] = Reduction in C26:0/C16:0 LPC level in ABCD1 knock out mouse CNS at 1 mg/kg, po qd measured after 3 months of dosing by LC-MS/MS analysis; assay type: functional; parameters: scale not given: the % may be the effect or the level left; details: 2190 h
[2] = Reduction in C26:0/C16:0 LPC level in ABCD1 knock out mouse CNS at 5 mg/kg, po qd measured after 8 months of dosing by LC-MS/MS analysis; assay type: functional; parameters: scale not given: the % may be the effect or the level left; details: 5840 h
[3] = Toxicity in Cynomolgus monkey assessed as skin lesions at 5 to 50 mg/kg/day, po administered for 14 days; assay type: organism-based, Macaca fascicularis; details: in vivo, 336 h, dose 5-50 mg/kg/day, time 14 day
[4] = Toxicity in Cynomolgus monkey assessed as adverse skin lesions at 20 to 50 mg/kg/day, po administered for 14 days; assay type: organism-based, Macaca fascicularis; details: in vivo, 336 h, dose 20-50 mg/kg/day, time 14 day
[5] = Toxicity in Cynomolgus monkey assessed as hyperkeratosis at 5 to 50 mg/kg/day, po administered for 14 days by microscopic observation analysis; assay type: organism-based, Macaca fascicularis; details: in vivo, 336 h, dose 5-50 mg/kg/day, time 14 day
[6] = Toxicity in Cynomolgus monkey assessed as multifocal gliosis at 20 to 50 mg/kg/day, po administered for 14 days; assay type: organism-based, Macaca fascicularis; details: in vivo, 336 h, dose 20-50 mg/kg/day, time 14 day
[7] = Clearance in mouse at 1 mg/kg, iv upto 48 hrs by LC/MS/MS analysis; assay type: ADME, organism-based; details: in vivo
[8] = Oral bioavailability in Beagle dog at 3 mg/kg upto 24 hrs by LC/MS/MS analysis; assay type: ADME, organism-based, Canis lupus familiaris; details: in vivo
[9] = Increase in C20:0/C16:0 LPC level in ABCD1 knock out mouse CNS at 10 mg/kg, po qd measured after 3 months of dosing by LC-MS/MS analysis; assay type: functional; details: 2190 h
Mus musculus [10] = experiment: Reduction in C26:0 LPC level in ABCD1 KO mouse blood administered orally qd for 105 days by LC-MS/MS analysis; assay type: functional, tissue-based; details: route po, time 105.0 day, DDE = dose-dependent effect
[11] = Efflux ratio of permeability across […] in dog MDCK-MDR1 transfected cells by LC-MS analysis; assay type: ADME, cell-based, Canis lupus familiaris
[12] = AUC (infinity) in Cynomolgus monkey at 3 mg/kg, po upto 24 hrs by LC/MS/MS analysis; assay type: ADME, organism-based, Macaca fascicularis; parameters: dose 3 mg/kg, time < 24 hrs, route po; details: in vivo
[13] = Toxicity in juvenile Sprague-Dawley rat assessed as ocular inflammation at 5 to 75 mg/kg/day, po treatment started from postnatal day 18 to 114 days; assay type: organism-based; details: in vivo, dose lower 5 mg/kg/day, time lower 18 day, dose upper 75 mg/kg/day, time upper 114 day
[14] = Toxicity in ABCD1 knock out mouse assessed as decrease in body weight at 8 to 32 mg/kg, po qd treated for 6 months; assay type: organism-based; details: in vivo, 4380 h, dose 8-32 mg/kg
[15] = Reduction of C26:0 /C16:0 LPC level in ABCD1 KO mouse blood at 20 mg/kg, po qd for 8 months by LC-MS/MS analysis relative to control; assay type: functional; parameters: scale not given: the % may be the effect or the level left; details: 5840 h
[16] = Clearance in Cynomolgus monkey at 1 mg/kg, iv upto 48 hrs by LC/MS/MS analysis; assay type: ADME, organism-based, Macaca fascicularis; details: in vivo
[17] = Toxicity in Sprague-Dawley rat assessed as reversal of lesions at 5 to 50 mg/kg/day, po administered for 8 weeks and measured after cessation dosing; assay type: organism-based; details: in vivo, 1344 h, dose 5-50 mg/kg/day
[18] = Reduction in C26:0 LPC level in ABCD1 knock out mouse CNS at 16 mg/kg, po qd measured after 6 months of dosing by LC-MS/MS analysis; assay type: functional; parameters: scale not given: the % may be the effect or the level left; details: 4380 h
[19] = Toxicity in Sprague-Dawley rat assessed as corneal opacities at 5 mg/kg/day, po administered for 8 weeks by macroscopic observation analysis; assay type: organism-based; details: in vivo, 1344 h
[20] = Reduction in C26:0/C16:0 LPC level in wild-type Sprague-Dawley rat at 30 mg/kg, po qd treated for 7 days by LC-MS/MS analysis; assay type: functional; parameters: scale not given: the % may be the effect or the level left; details: time 7 day
[21] = Volume of distribution at steady state in mouse at 1 mg/kg, iv upto 48 hrs by LC/MS/MS analysis; assay type: ADME, organism-based; details: in vivo, read-out: Vdss
Mus musculus [22] = experiment: Reversal of loss of thermal pain sensitivity in ABCD1 knock out mouse assessed as increase in latency at 8 to 32 mg/kg, po qd treated for 6 months by Hargreaves test; assay type: functional, organism-based; details: dose 8-32 mg/kg
[23] = Toxicity in Sprague-Dawley rat assessed as ocular stromal fibrosis at 5 mg/kg/day, po administered for 8 weeks by microscopic observation analysis; assay type: organism-based; details: in vivo, 1344 h
[24] = Increase in C20:0/C16:0 total VLCFA levels in ABCD1 knock out mouse CNS at 1 to 10 mg/kg, po qd measured after 3 months of dosing by LC-MS/MS analysis; assay type: functional; details: dose 1-10 mg/kg, 2190 h
[25] = Volume of distribution at steady state in Sprague-Dawley rat at 1 mg/kg, iv upto 48 hrs by LC/MS/MS analysis; assay type: ADME, organism-based; details: in vivo, read-out: Vdss
[26] = AUC (infinity) in Beagle dog at 3 mg/kg, po upto 24 hrs by LC/MS/MS analysis; assay type: ADME, organism-based, Canis lupus familiaris; parameters: time < 24 hrs, dose 3 mg/kg, route po; details: in vivo
[27] = target: T1, Adenosine receptor A3 (Homo sapiens) (UniProt P0DMS8); experiment: Inhibition of Adenosine A3 Receptor (unknown origin) at 10 uM
T1 sequence (whole entry): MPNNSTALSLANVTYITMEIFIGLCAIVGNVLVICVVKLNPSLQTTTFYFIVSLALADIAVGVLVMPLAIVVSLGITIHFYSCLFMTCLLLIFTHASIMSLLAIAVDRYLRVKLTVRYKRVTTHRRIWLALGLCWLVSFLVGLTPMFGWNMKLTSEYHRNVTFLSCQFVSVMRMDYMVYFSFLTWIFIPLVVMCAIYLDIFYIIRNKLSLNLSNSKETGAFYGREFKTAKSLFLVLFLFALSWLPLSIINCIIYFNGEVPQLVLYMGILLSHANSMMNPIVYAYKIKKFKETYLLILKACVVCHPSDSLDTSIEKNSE

[28] = Unbound brain-to-plasma concentration ratio in rat at 3 mg/kg, po measured after 120 mins; assay type: ADME, organism-based; details: brain and plasma, read-out: K(p,uu,brain)
[29] = Lipophilicity, logD of compound at pH 7.4; assay type: physicochemical; details: buffer
[30] = target: T2, Very long chain fatty acid elongase 1 (Homo sapiens, UniProt Q9BW60); experiment: Inhibition of ELOVL1 in human HEK2936E cells assessed as reduction of C26:0 LPC synthesis incubated for 48 hrs by cellular assay; assay type: cell-based
T2 sequence (Q9BW60 whole entry): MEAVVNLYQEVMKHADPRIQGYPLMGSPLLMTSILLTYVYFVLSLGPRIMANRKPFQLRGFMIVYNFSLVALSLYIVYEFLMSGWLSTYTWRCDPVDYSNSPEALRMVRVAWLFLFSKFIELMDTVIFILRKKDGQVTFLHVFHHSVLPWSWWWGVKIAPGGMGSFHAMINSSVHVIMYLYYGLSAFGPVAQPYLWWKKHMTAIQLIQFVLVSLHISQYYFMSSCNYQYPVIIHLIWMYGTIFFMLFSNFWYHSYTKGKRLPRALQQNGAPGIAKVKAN

## O=C(Nc1ccn(-c2ccnc(F)c2)n1)C1(c2ccccc2F)CC1
[1]
  Activity: 25%
[2]
  Activity: 65%
[3]
  Activity: Toxic
[4]
  Activity: Toxic
[5]
  Activity: Toxic
[6]
  Activity: Toxic
[7]
  clearance: 10.7 mL/min/kg
[8]
  bioavailability: 77%
[9]
  Activity: 38%
Mus musculus [10]
  Activity: Dde
[11]
  Ratio: 1.1
[12]
  AUC(0-inf): 7700 ng·h/mL
[13]
  Activity: Toxic
[14]
  Activity: Non-Toxic
[15]
  Activity: 68%
[16]
  clearance: 7 mL/min/kg
[17]
  Activity: Non-Toxic
[18]
  Activity: 51%
[19]
  Activity: Toxic
[20]
  Activity: 67%
[21]
  Vd: 2.6 L/kg
Mus musculus [22]
  Activity: Active
[23]
  Activity: Toxic
[24]
  Activity: <6%
[25]
  Vd: 4 L/kg
[26]
  AUC(0-inf): 1250 ng·h/mL
[27]
  inhibition: > 50%
[28]
  Kp uu at 2 h: 1.1
[29]
  logD: 3.2
[30]
  IC50: 0.013 µM
